Reference: patent US6063814A, “Phorbol esters as anti-neoplastic and white blood cell elevating agents” (priority 1997, dated 2000)

System: White Blood Cell (WBC)
Test: TPA induced white blood cell changes in patients with solid tumors undergoing chemotherapy
Assay type: in vivo, humans
Experimental: TPA solution in a sterile syringe was injected into 200 ml of saline and mixed well for i.v. infusion.
Patients undergoing chemotherapy for the treatment of solid tumors.
Subject No. (11), person. Diagnosis: malignant lymphoma. The patient had received adramycin, vincristine, and hormonal treatment. The blood cell counts were decreased to: Hb: 78 g/L, WBC: 0.7×10^9 /L, platelet: 245×10^9 /L. 0.25 mg TPA was administered to the patient 4 times. The blood cell counts improved to: Hb: 76 g/L, WBC: 6.8×10^9 /L, platelet: 331×10^9 /L. Chemotherapy was then continued for 5 more days, and followed by one dose of 0.5 mg TPA. The WBC count was maintained at 3.0×10^9 /L. The patient is still receiving treatment.
Subject No. (12), person. Diagnosis: brain tumor. Blood profile after chemotherapy was: Hb: 119 g/L, WBC: 3.0×10^9 /L, platelet: 399×10^9 /L. 0.25 mg TPA was given to the patient once. On the day after the TPA treatment, the blood profile was Hb: 123 g/L, WBC: 4.5×10^9 /L, platelet: 436×10^9 /L. The patient received further chemotherapy.
Subject No. (13), person. Diagnosis: lung cancer. After chemotherapy, their blood cell counts were decreased to: Hb: 76 g/L, WBC: 0.9×10^9 /L, platelet: 100×10^9 /L. 0.25 mg TPA was given to the patient twice. On the day after the TPA treatment, Hb: 74 g/L, WBC: 2.5×10^9 /L, platelet: 110×10^9 /L. The patient is still receiving treatment.
Subject No. (14), person. Diagnosis: breast cancer. The WBC after chemotherapy was 3.8×10^9 /L. 0.25 mg of TPA was given to the patient once. The WBC on the day after the TPA treatment was 8.0×10^9 /L.
Subject No. (15), person. Diagnosis: Esophageal Cancer. Surgery was performed, followed by chemotherapy using cisplatin, 5-fluorouracil. Blood profile (before TPA): WBC: 2.4×10^9 /L; neutrophil: 83%, lymphocyte: 17%; platelet: 150×10^9 /L; RBC: 3.43×10^12 /L; Hb: 107 g/L. TPA dosage: 0.25 mg. […] The cardiac, hepatic, renal and pulmonary functions were normal.
Subject No. (16), person. Diagnosis: Esophageal Cancer. Surgery was performed, followed by chemotherapy using VP16, MTX, MMC and cisplatin. TPA dose: 0.25 mg. Blood profile (before TPA): WBC: 2.4×10^9 /L; neutrophil: 67%; lymphocyte: 23%; platelet: 101×10^9 /L; RBC: 3.45×10^12 /L; Hb: 114 g/L. Blood profile (one day after TPA): WBC: 5.2×10^9 /L; neutrophil: 87%; lymphocyte: 13%; platelet 60×10^9 /L; RBC: 3.76×10^12 /L; Hb: 122 g/L. Blood profile (2 days after TPA administration).
Subject No. (17), person. Diagnosis: breast cancer. Surgery was performed, followed by chemotherapy using CTX, MTX, and 5-FU. TPA dose: 0.25 mg×2 (Second dose was 4 days after 1st dose). […] The cardiac, hepatic, renal and pulmonary functions were normal.
Subject No. (18), person. Diagnosis: Colon cancer. Surgery was performed, followed by chemotherapy using Cisplatin, VP16, and 5-FU. TPA dose: 0.25 mg×2 (2nd TPA dose was administered 24 hrs after 1st TPA dose). […] Cardiac hepatic, renal and pulmonary functions were normal.
Subject No. (19), person. Diagnosis: lung cancer metastasized to adrenal gland. Surgery was performed, followed by chemotherapy using MMC, VCR, and CTX. TPA dosage: 0.25 mg×2 (2nd TPA dose was administered 24 hrs after 1st TPA dose). […] Cardiac, hepatic renal and pulmonary functions were normal.
Subject No. (20), person. Diagnosis: esophageal cancer metastasized to liver, lung and brain. The patient received chemotherapy using Taxol, cisplatin, 5-FU and Semustial. Total TPA dosage: 2mg. Blood profile (before TPA): WBC: 0.7×10^9 /L; neutrophil: 29%; lymphocyte: 71%; platelet: N/A; RBC: 2.82×10^12 /L; Hb: 87 g/L. TPA treatment schedule. On the first and third day, 0.25 mg was given and on the 5th, 7th and 9th day 0.5 mg of TPA was given. […] Cardiac, hepatic, renal and pulmonary functions were normal.
Subject No. (21), person. Diagnosis: lymphoma metastasized to bone marrow. […]

[1] = subject 20, day 2, TPA total 2 mg over 9 days
[2] = subject 20, day 4, TPA total 2 mg over 9 days
[3] = subject 20, day 6, TPA total 2 mg over 9 days
[4] = subject 20, day 8, TPA total 2 mg over 9 days
[5] = subject 20, day 13, TPA total 2 mg over 9 days
[6] = subject 21, day 2, TPA total 2.5 mg, days 1-8
[7] = subject 21, day 4, TPA total 2.5 mg, days 1-8
[8] = subject 21, day 7, TPA total 2.5 mg, days 1-8
[9] = subject 21, day 9, TPA total 2.5 mg, days 1-8

In the case of CCCCCCCCCCCCCC(=O)O[C@@H]1[C@@H](C)[C@@]2(O)[C@@H](C=C(CO)C[C@]3(O)C(=O)C(C)=C[C@@H]23)[C@@H]2C(C)(C)[C@]12OC(C)=O [TPA, Phorbol 12-Myristate-13-Acetate], the lymphocyte [1] is reported as 34%, the neutrophil [1] is reported as 66% and the platelet [1] is reported as 8.2e+10 L⁻¹. It also gave a Hb [2] of 58 g/L, an RBC [2] of 2.09e+12 L⁻¹ and a WBC [2] of 1.1e+09 L⁻¹. It also gave a lymphocyte [2] of 9%, a neutrophil [2] of 91% and a platelet [2] of 3.9e+10 L⁻¹. The Hb [3] was 70 g/L, the RBC [3] was 1.9 ×10^12 and the WBC [3] was 1.9e+09 L⁻¹. For the same molecule, the lymphocyte [3] was 5%, the neutrophil [3] was 95% and the platelet [3] was 4.3e+10 L⁻¹. It also gave a Hb [4] of 61 g/L, an RBC [4] of 1.71e+12 L⁻¹ and a WBC [4] of 2.3e+09 L⁻¹. It also gave a lymphocyte [4] of 9%, a neutrophil [4] of 91% and a platelet [4] of 9e+10 L⁻¹. For the same molecule, the Hb [5] was 57 g/L, the RBC [5] was 1.73e+12 L⁻¹ and the WBC [5] was 1.9e+09 L⁻¹. For the same molecule, the lymphocyte [5] was 10%, the neutrophil [5] was 90% and the platelet [5] was 3.2e+10 L⁻¹. It also gave a Hb [6] of 117 g/L, an RBC [6] of 4.15e+12 L⁻¹ and a WBC [6] of 6e+08 L⁻¹. For the same molecule, the platelet [6] was 6.9e+10 L⁻¹, the Hb [7] was 109 g/L and the RBC [7] was 3.95e+12 L⁻¹. The WBC [7] was 6e+08 L⁻¹, the lymphocyte [7] was 72% and the neutrophil [7] was 28%. For the same molecule, the platelet [7] was 6.8e+10 L⁻¹, the Hb [8] was 110 g/L and the RBC [8] was 4.22e+12 L⁻¹. For the same molecule, the WBC [8] was 8e+08 L⁻¹, the lymphocyte [8] was 12% and the neutrophil [8] was 88%. The platelet [8] was 6e+10 L⁻¹, the Hb [9] was 112 g/L and the RBC [9] was 4.02e+12 L⁻¹. For the same molecule, the WBC [9] was 1.5e+09 L⁻¹, the lymphocyte [9] was 2% and the neutrophil [9] was 80%. The platelet [9] was 6.9e+10 L⁻¹, the “resolution of injection site symptoms” value (subject 25, TPA 0.25 mg) was “disappeared the second day after they appeared” and the injection site reaction (subject 25, TPA 0.25 mg, probably caused by infusion needle) was “red, swollen in appearance and painful”. For the same molecule, the “duration of raised temperature” value (subject 26, TPA 0.25 mg) was 3 h, the Hb (three days after TPA 0.25 mg) was 123 g/L and the WBC (three days after TPA 0.25 mg) was 2.9e+09 L⁻¹. For the same molecule, the lymphocyte (three days after TPA 0.25 mg) was 27% and the neutrophil (three days after TPA 0.25 mg) was 73%.
